Results taken from US6107317A, “N-(substituted glycyl)-thiazolidines, pharmaceutical compositions containing them and their use in inhibiting dipeptidyl peptidase-IV” (Novartis AG, priority 1999, dated 2000).
Structures can show the parent of a compound that is named as a salt.

Key:
DPP-IV = molecular target: T1, DPP-IV (Homo sapiens, UniProt P27487); assay: Caco-2 DPP-IV Assay (inhibition of DPP-IV activity from human colonic carcinoma cell extracts); type: biochemical; settings: solubilized Caco-2 protein 20 μg; substrate H-Alanine-Proline-pNA; pH 7.4; room temperature, 10 minutes
T1 construct: host or cells: Caco-2, differentiated to induce DPP-IV expression; cell extract solubilized in 0.5% nonidet-P40
Procedure: The human colonic carcinoma cell line Caco-2 was obtained from the American Type Culture Collection (ATCC HTB 37). Differentiation of the cells to induce DPP-IV expression was accomplished as described by Reisher, et al. in an article entitled "Increased expression of . . . intestinal cell line Caco-2" in Proc. Natl. Acad. Sci., Vol. 90, pgs. […] Cell extract is prepared from cells solubilized in 10 mM Tris-HCl, 0.15 M NaCl, 0.04 t.i.u. aprotinin, 0.5% nonidet-P40, pH 8.0, which is centrifuged at 35,000 g for 30 min. at 4° C. to remove cell debris. The assay is conducted by adding 20 μg solubilized Caco-2 protein, diluted to a final volume of 125 μl in assay buffer (25 mM Tris-HCl pH 7.4, 140 mM NaCl, 10 mM KCl, 1% bovine serum albumin) to microtiter plate wells. The reaction is initiated by adding 25μl of 1 mM substrate (H-Alanine-Proline-pNA; pNA is p-nitroaniline). The reaction is run at room temperature for 10 minutes after which time a 19 μl volume of 25% glacial acetic acid is added to stop the reaction. […] A standard curve of free p-nitroaniline is generated using 0-500 μM solutions of free pNA in assay buffer. The curve generated is linear and is used for interpolation of substrate consumption (catalytic activity in nmoles substrate cleaved/min). […] The potency of the test compounds as DPP-IV inhibitors, expressed as IC50, is calculated from 8-point, dose-response curves using a 4-parameter logistic function.

human plasma DPP-IV = molecular target: T2, human plasma DPP-IV (Homo sapiens, UniProt P27487); assay: DPP-IV activity in human plasma; type: biochemical; settings: substrate H-Glycine-Proline-AMC, pH 7.8, room temperature, 20 min
T2 construct: DPP-IV activity in human and rat plasma; from tissue; host or cells: human plasma
Procedure: (§1) Briefly, five μl of plasma are added to 96-well flat-bottom mictotiter plates (Falcon), followed by the addition of 5 μl of 80 mM MgCl2 in incubation buffer (25 mM HEPES, 140 mM NaCl, 1% RIA-grade BSA, pH 7.8). After a 5 min. incubation at room temperature, the reaction is initiated by the addition of 10 μl of incubation buffer containing 0.1 mM substrate (H-Glycine-Proline-AMC; AMC is 7-amino-4-methylcoumarin). The plates are covered with aluminum foil (or kept in the dark) and incubated at room temperature for 20 min. […] A fluorescence-concentration curve of free AMC is generated using 0-50 μM solutions of AMC in assay buffer. The curve generated is linear and is used for interpolation of substrate consumption (catalytic activity in nmoles substrate cleaved/min). As with the previous assay, the potency of the test compounds as DPP-IV inhibitors, expressed as IC50, is calculated from 8-point, dose-response curves using a 4 parameter logistic function.

rat plasma DPP-IV = molecular target: T3, rat plasma DPP-IV (Rattus norvegicus, UniProt P14740); assay: DPP-IV activity in rat plasma; type: biochemical; settings: substrate H-Glycine-Proline-AMC, pH 7.8, room temperature, 20 min
T3 construct: DPP-IV activity in human and rat plasma; from tissue; host or cells: rat plasma
Procedure: as §1

[1] = diabetic and non-diabetic subjects, Diabetes, Vol. 44, pgs. 1126-1131; cited from earlier work

T2 sequence (P27487 39-766 limits assumed): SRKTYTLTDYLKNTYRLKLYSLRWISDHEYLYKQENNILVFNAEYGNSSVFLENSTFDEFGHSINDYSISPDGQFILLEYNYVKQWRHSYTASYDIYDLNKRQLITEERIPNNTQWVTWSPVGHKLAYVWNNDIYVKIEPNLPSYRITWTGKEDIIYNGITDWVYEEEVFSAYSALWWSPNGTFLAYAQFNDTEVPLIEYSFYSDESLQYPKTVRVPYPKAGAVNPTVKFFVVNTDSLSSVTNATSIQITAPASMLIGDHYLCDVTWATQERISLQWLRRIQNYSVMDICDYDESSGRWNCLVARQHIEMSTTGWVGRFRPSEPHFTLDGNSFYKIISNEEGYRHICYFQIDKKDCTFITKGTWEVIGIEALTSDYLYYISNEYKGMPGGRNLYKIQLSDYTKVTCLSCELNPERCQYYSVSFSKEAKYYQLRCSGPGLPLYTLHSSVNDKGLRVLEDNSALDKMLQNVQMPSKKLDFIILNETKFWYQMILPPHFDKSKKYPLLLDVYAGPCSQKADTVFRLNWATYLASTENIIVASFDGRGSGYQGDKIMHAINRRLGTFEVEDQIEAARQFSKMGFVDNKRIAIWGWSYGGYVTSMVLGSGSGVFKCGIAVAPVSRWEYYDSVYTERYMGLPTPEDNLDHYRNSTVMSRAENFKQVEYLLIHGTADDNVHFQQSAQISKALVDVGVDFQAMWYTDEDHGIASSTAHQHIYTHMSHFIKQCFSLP
T3 sequence (P14740 37-767 limits assumed): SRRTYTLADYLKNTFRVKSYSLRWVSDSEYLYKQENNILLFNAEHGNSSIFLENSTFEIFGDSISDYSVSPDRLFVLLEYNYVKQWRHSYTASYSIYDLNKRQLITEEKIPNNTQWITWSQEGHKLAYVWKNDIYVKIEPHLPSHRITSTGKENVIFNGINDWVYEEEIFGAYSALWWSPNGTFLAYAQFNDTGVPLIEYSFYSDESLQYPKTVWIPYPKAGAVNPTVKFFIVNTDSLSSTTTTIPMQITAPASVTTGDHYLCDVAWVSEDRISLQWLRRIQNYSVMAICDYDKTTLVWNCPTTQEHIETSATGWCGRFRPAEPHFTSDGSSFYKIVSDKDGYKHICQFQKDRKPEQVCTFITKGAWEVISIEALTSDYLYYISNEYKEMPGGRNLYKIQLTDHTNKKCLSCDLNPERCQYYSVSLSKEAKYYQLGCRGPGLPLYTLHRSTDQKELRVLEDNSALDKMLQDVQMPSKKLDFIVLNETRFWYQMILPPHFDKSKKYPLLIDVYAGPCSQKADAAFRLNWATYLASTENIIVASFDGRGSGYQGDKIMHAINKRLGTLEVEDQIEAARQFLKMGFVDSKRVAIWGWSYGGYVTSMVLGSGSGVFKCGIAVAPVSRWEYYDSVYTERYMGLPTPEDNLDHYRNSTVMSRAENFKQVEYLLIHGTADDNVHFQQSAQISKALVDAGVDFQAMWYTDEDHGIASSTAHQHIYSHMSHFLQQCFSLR
T1 sequence (P27487 whole entry): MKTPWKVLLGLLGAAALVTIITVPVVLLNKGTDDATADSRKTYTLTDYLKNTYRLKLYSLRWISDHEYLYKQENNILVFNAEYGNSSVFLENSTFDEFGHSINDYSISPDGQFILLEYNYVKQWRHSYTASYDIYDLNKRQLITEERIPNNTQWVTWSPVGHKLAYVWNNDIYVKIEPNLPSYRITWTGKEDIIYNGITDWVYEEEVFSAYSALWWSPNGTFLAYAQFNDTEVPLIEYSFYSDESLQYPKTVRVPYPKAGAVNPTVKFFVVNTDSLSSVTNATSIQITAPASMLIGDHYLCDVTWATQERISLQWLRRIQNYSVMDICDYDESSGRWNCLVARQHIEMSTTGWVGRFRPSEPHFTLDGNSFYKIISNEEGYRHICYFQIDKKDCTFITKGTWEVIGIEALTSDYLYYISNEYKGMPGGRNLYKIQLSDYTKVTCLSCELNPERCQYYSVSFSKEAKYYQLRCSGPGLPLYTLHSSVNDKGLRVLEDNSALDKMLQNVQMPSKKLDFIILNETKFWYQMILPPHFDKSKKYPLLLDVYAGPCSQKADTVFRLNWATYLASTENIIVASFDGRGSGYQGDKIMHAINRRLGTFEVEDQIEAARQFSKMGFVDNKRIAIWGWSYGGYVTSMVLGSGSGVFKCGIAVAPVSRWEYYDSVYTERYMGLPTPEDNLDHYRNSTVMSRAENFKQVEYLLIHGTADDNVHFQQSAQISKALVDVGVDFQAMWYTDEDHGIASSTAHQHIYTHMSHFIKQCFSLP

IC50 (DPP-IV) [µM] | IC50 (human plasma DPP-IV) [µM] | IC50 (rat plasma DPP-IV) [µM] | Compound | degradation when administered by subcutaneous or intravenous routes [1]
10.3 | 6.8 | 10.5 | O=C(CNCCNc1ccccn1)N1CCSC1 [Ex. 1, 1-[2-[(pyridin-2-yl)amino]ethylamino]acetylthiazolidine dihydrochloride] | –
25.3 | 5.7 | 3.3 | O=C(CNC1(CO)CCCC1)N1CCSC1 [Ex. 2, 1-[(1-hydroxymethylcyclopent-1-yl)amino]acetylthiazolidine hydrochloride] | –
31.1 | 21 | 7.1 | O=C(CNCCNc1ccc(Cl)cn1)N1CCSC1 [Ex. 4, 1-[2-[(5-chloropyridin-2-yl)amino]ethylamino]acetylthiazolidine] | –
– | – | – | GLP-I amide: GLP-I amide | rapidly degraded
